Data published in patent US20030082101A1, “Accelerators for increasing the rate of formation of free radicals and reactive oxygen species” (Cavalier Discovery, priority 2001, published 2003).

Key:
Assay type in all cases: biochemical
ferritin [1] = assay: Release of iron from ferritin assay, additives, ultrasound (Example 10); details: 0.2 mg/mL ferritin, pH 7, 15 min
Method: (§1) The following example uses the release of iron from ferritin assay to show the effect of additives on the release of iron from ferritin during ultrasound exposure. All solutions were prepared in pH 7 acetic acid solution containing approximately 0.2 mg/mL ferritin and 1 mM ferrozine, and the concentration of 1,4-quinone indicated in the table below. Solutions were sonicated at 30 W, 2 MHz, 32-34 degrees Celsius for fifteen minutes using a PZT-8 1.8 cm diameter custom transducer. The sonicated solution was placed on an orbit shaker rotating at 25 RPM to ensure even sonication of the solution while the transducer was held stationary. Control solutions were placed in a controlled temperature bath at 32-34 degrees Celsius without sonication. After 15 minutes of treatment, an aliquot was tested for the presence of the iron-ferrozine chelate via absorbance at 562 nm. The amount of iron released was determined using the control solution corrected absorbance (subtract the absorbance of the control solution from the absorbance of the ultrasound solution). The corrected absorbance was compared to a ferrozine-iron standard curve to determine the enhanced iron release due to ultrasound exposure. The enhanced iron release due to ultrasound exposure in the presence of the additive was compared to the amount of enhanced iron release due to ultrasound exposure in the absence of any additives as follows: [formula]

deoxyribose [2] = assay: TBARS assay, metals that enhance radical production during ultrasound (Example 6)
Method: (§2) The following example uses the thiobarbituric acid-reactive substances (TBARS) assay to identify metals that enhance radical production during ultrasound. All solutions were prepared in pH 7.5 phosphate buffer containing approximately 2 mM deoxyribose, 0.01% hydrogen peroxide, and the additives indicated in the table below. Solutions were sonicated at 30 W, 2 MHz, 32-34 degrees Celsius for ten minutes using a PZT-8 1.8 cm diameter custom transducer. The sonicated solution was placed on an orbit shaker rotating at 25 RPM to ensure even sonication of the solution while the transducer was held stationary. Control solutions were placed in a controlled temperature bath at 32-34 degrees Celsius without sonication. After 10 minutes of treatment, 1 mL test solution was placed in a test tube followed by 2 mL of 1% 2-thiobarbituric acid and 2 mL of 2.8% trichloroacetic acid. The test tube was sealed and heated to 90 degrees Celsius for 30 minutes and allowed to cool to room temperature for 20 minutes. The absorbance at 532 nm was measured. The enhanced radical production during ultrasound exposure was determined by comparing the amount of deoxyribose degradation that occurs in the sonicated solution versus the control solution using the following equation: [formula]

deoxyribose [3] = assay: TBARS assay, existing sonodynamic agents with a metal, ultrasound (Example 14); details: 0.025 mM ferrous iron, 0.025 mM ferric iron
Method: as §2, with “All” for “The following example uses the thiobarbituric acid-reactive substances (TBARS) assay to identify metals that enhance radical production during ultrasound. All”, “are” for “were”, “peroxide, 0.025 mM ferrous iron, 0.025 mM ferric iron,” for “peroxide,”, “is” for “was”

ferritin [4] = assay: Release of iron from ferritin assay, anthraquinones, ultrasound (Example 9); details: 0.2 mg/mL ferritin, pH 7.5, 15 min
Method: All solutions are prepared in pH 7.5 phosphate buffer containing approximately 0.2 mg/mL ferritin and 1 mM ferrozine, and the concentration of anthraquinone indicated in the table below. Solutions are sonicated at 30 W, 2 MHz, 32-34 degrees Celsius for fifteen minutes using a PZT-8 1.8 cm diameter custom transducer. The sonicated solution is placed on an orbit shaker rotating at 25 RPM to ensure even sonication of the solution while the transducer is held stationary. Control solutions are placed in a controlled temperature bath at 32-34 degrees Celsius without sonication. After 15 minutes of treatment, an aliquot is tested for the presence of the iron-ferrozine chelate via absorbance at 562 nm. The amount of iron released is determined using the control solution corrected absorbance (subtract the absorbance of the control solution from the absorbance of the ultrasound solution). The corrected absorbance is compared to a ferrozine-iron standard curve to determine the amount of iron released.

deoxyribose [5] = assay: TBARS assay, existing sonodynamic agents with a metal, ultrasound (Example 13); details: 0.025 mM ferrous iron, 0.025 mM ferric iron
Method: as §2, with “All” for “The following example uses the thiobarbituric acid-reactive substances (TBARS) assay to identify metals that enhance radical production during ultrasound. All”, “peroxide, 0.025 mM ferrous iron, 0.025 mM ferric iron,” for “peroxide,”

deoxyribose [6] = assay: TBARS assay, additives with ferrous iron/EDTA, ultrasound (Example 11); details: 0.075 mM additive; 0.05 mM ferrous iron, 0.075 mM EDTA
Method: as §2, with “are” for “were”, “peroxide, 0.05 mM ferrous iron added as FeSO4 hydrate, 0.075 mM EDTA,” for “peroxide,”, “is” for “was”

ferritin [7] = assay: Release of iron from ferritin assay, naphthoquinones, ultrasound (Example 8); details: iron release vs ultrasound without additive, 0.2 mg/mL ferritin, pH 7, 15 min
Method: as §1, with “of naphthoquinones” for “of additives”, “of naphthoquinone” for “of 1,4-quinone”, “the amount of” for “the enhanced”, “iron released.” for “iron release due to ultrasound exposure.”, “the naphthoquinone” for “the additive”

[8] = Free radical production when exposed to ultrasound and a metal (statements in the description); details: when exposed to ultrasound and a metal

With `O=C1C=CC(=O)C=C1` [1,4 benzoquinone] the “% Ultrasound Mediated Activity” value (ferritin [1]; concentration not given) was 0%.

For `O=S(=O)([O-])[O-].O=S(=O)([O-])[O-].[Fe+2].[NH4+].[NH4+]` [Ferrous iron added as Fe(NH4)2(SO4)2, Fe(NH4)2(SO4)2], the “% Ultrasound Mediated Activity vs Control” value (deoxyribose [2]; ferrous iron 0.1 mM) was 12%.

For Hypocrellin A, the “% Ultrasound Mediated Activity vs Control” value (deoxyribose [3]; 0.025 mM additive) was >30%.

With “Iron(III) phthalocyanine-4,4′,4″,4″′-tetrasulfonic acid” the “% Ultrasound Mediated Activity vs Control” value (deoxyribose [3]; 0.025 uM additive) was >30%.

For `[Cl][Fe]([Cl])[Cl]` [Ferric iron added as FeCl3, FeCl3], the “% Ultrasound Mediated Activity vs Control” value (deoxyribose [2]; ferric iron approx 0.1 mM) was 76%.

For `Cc1cc(O)c2c(c1)C(=O)c1cccc(O)c1C2=O` [Chrysophanol, 1,8-dihydroxy-3-methylanthraquinone], the “% Ultrasound Mediated Activity” value (ferritin [4]; 0.05 mM additive) was >50%.

With `O=C([O-])c1c(Cl)c(Cl)c(Cl)c(Cl)c1-c1c2cc(I)c(=O)c(I)c-2oc2c(I)c([O-])c(I)cc12.[Na+].[Na+]` [Rose Bengal] the “% Ultrasound Mediated Activity vs Control” value (deoxyribose [5]; 0.028 mM additive) was 28%.

For `Cc1cc(O)c2c(c1)C(=O)c1cc(O)cc(O)c1C2=O` [Emodin, 6-methyl-1,3,8-trihydroxyanthraquinone], the “% Ultrasound Mediated Activity” value (ferritin [4]; 0.05 mM additive) was >50%.

For `O=C1c2ccccc2C(=O)c2c1cc(S(=O)(=O)O)c(O)c2O` [Alizarin Red S, 3,4-dihydroxy-9,10-dioxo-2-anthracenesulfonic acid], the “% Ultrasound Mediated Activity” value (ferritin [4]; 0.05 mM additive) was >50%.

With `O=c1c(O)c(-c2ccc(O)c(O)c2)oc2cc(O)cc(O)c12` [Quercetin] the “% Ultrasound Mediated Activity vs Control” value (deoxyribose [6]) was >100%.

With `CC(C)=CCC1=C(O)C(=O)c2ccccc2C1=O` [2-hydroxy-3-(3-methyl-2-butenyl)-1,4-naphthoquinone] the “% Ultrasound Mediated Activity” value (ferritin [7]; 15 uM additive) was 72%.

With `O=c1c(O)c(-c2cc(O)c(O)c(O)c2)oc2cc(O)cc(O)c12` [Myricetin] the “% Ultrasound Mediated Activity vs Control” value (deoxyribose [6]) was >100%.

In the case of `O=C(O)/C(O)=C(\O)C(=O)O` [DIHYDROXYFUMARATE], the “% Ultrasound Mediated Activity” value (ferritin [1]; 0.01 mM additive) is reported as 72%.

For `O=C1c2ccccc2C(=O)c2cc(S(=O)(=O)O)ccc21` [Anthraquinone-2-sulfonic acid], the “% Ultrasound Mediated Activity” value (ferritin [4]; concentration not given) was <10%.

In the case of `O=C(O)c1cc(O)c2c(c1)C(=O)c1cccc(O)c1C2=O` [Rhein, 9,10-dihydro-4,5-dihydroxy-9,10-dioxo-2-anthracenecarboxylic acid], the “% Ultrasound Mediated Activity” value (ferritin [4]; 0.05 mM additive) is reported as >50%.

In the case of `N[C@@H](CS)C(=O)O` [CYSTEINE], the free radical production [8] is reported as “increase free radical production” and the “% Ultrasound Mediated Activity” value (ferritin [1]; 0.45 mM additive) is reported as 160%.

In the case of `COc1cccc2c1C(=O)c1c(O)c3c(c(O)c1C2=O)C[C@@](O)(C(=O)CO)C[C@@H]3O[C@H]1C[C@H](N)[C@H](O)[C@H](C)O1` [Adriamycin], the “% Ultrasound Mediated Activity vs Control” value (deoxyribose [5]; 0.029 mM additive) is reported as 29%.

For `O=C1C=CC(=O)c2c(O)cccc21` [5-hydroxy-1,4-naphthoquinone (juglone), 5-hydroxy-1,4-naphthoquinone], the “% Ultrasound Mediated Activity” value (ferritin [7]; 10 uM additive) was 93%.

In the case of `CC1=CC(=O)c2ccccc2C1=O` [2-methyl-1,4-naphthoquinone (menadione), 2-methyl-1,4-naphthoquinone], the “% Ultrasound Mediated Activity” value (ferritin [7]; 18 uM additive) is reported as 5.3%.

For Ferritin, the “% Ultrasound Mediated Activity vs Control” value (deoxyribose [2]; ferritin approx. 0.2 mg/mL) was 6%.

For `O=C1C(O)=C(O)C(=O)C(O)=C1O` [Tetrahydroxy 1,4-benzoquinone], the “% Ultrasound Mediated Activity” value (ferritin [1]; 0.11 mM additive) was 186%.

For `[Cl][Cu][Cl]` [Cupric chloride], the “% Ultrasound Mediated Activity vs Control” value (deoxyribose [2]; cupric chloride 0.026 mM) was 82%.

For `CC(C)(S)[C@@H](N)C(=O)O` [PENICILLAMINE], the free radical production [8] was “increase free radical production” and the “% Ultrasound Mediated Activity” value (ferritin [1]; 0.11 mM additive) was 117%.
